Experimental data published in PubChem BioAssay AID256 (DTP/NCI, 2004).
Values joined by “and” are separate entries in the source; they are usually repeats but may differ in a detail not shown here. Equal entries are not always repeated. Inconclusive results and toxic doses are left out.

System: CD2F1 mice, L1210 leukemia ip, survival T/C
Experiment: NCI In Vivo Anticancer Drug Screen. Data for tumor model L1210 Leukemia (intraperitoneal) in CD2F1 (CDF1) mice
Settings: endpoint: mean survival time, higher = longer survival
Method in brief: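 Mice carrying a transplanted tumor received test compound or vehicle alone. The value is the measurement in the treated group divided by that in the vehicle-treated control group.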

[1] = dose: 100.0 mg/kg/injection, schedule: Q04DX003 (ip), vehicle: saline with Tween-80
[2] = dose: 100.0 mg/kg/injection, schedule: Q01DX009 (ip), vehicle: saline
[3] = dose: 200.0 mg/kg/injection, schedule: Q01DX009 (ip), vehicle: saline
[4] = dose: 25.0 mg/kg/injection, schedule: Q01DX009 (ip), vehicle: saline
[5] = dose: 50.0 mg/kg/injection, schedule: Q01DX009 (ip), vehicle: saline with Tween-80
[6] = dose: 100.0 mg/kg/injection, schedule: Q01DX009 (ip), vehicle: saline with Tween-80
[7] = dose: 200.0 mg/kg/injection, schedule: Q01DX009 (ip), vehicle: saline with Tween-80

O=S(=O)(O)O.[NH-]C1CCCCCC1[NH-].[Pt+2] (configuration not stated)
T/C (dose: 1.56 mg/kg/injection, schedule: Q04DX003 (ip), vehicle: dextrose): 205 % of control
T/C (dose: 3.13 mg/kg/injection, schedule: Q01DX001 (ip), vehicle: dextrose): 200 % of control and 204 % of control
T/C (dose: 3.13 mg/kg/injection, schedule: Q04DX003 (ip), vehicle: dextrose): 188 % of control and 241 % of control and 103 % of control
T/C (dose: 6.25 mg/kg/injection, schedule: Q01DX001 (ip), vehicle: dextrose): 170 % of control and 189 % of control
T/C (dose: 12.5 mg/kg/injection, schedule: Q01DX001 (ip), vehicle: dextrose): 86 % of control
T/C (dose: 12.5 mg/kg/injection, schedule: Q04DX003 (ip), vehicle: dextrose): 97 % of control

C=C1C(=O)OC2CC(C)C3CC(OCCCl)OC(OCCCl)C3(C)CC12 (configuration not stated)
T/C (dose: 10.0 mg/kg/injection, schedule: Q01DX005 (ip), vehicle: water): 98 % of control
T/C (dose: 20.0 mg/kg/injection, schedule: Q01DX005 (ip), vehicle: water): 96 % of control
T/C (dose: 40.0 mg/kg/injection, schedule: Q01DX005 (ip), vehicle: water): 93 % of control
T/C (dose: 50.0 mg/kg/injection, schedule: Q01DX005 (ip), vehicle: distilled water + Tween-80): 92 % of control
T/C (dose: 80.0 mg/kg/injection, schedule: Q01DX005 (ip), vehicle: water): 94 % of control
T/C (dose: 100.0 mg/kg/injection, schedule: Q01DX005 (ip), vehicle: distilled water + Tween-80): 97 % of control
T/C (dose: 200.0 mg/kg/injection, schedule: Q01DX005 (ip), vehicle: distilled water + Tween-80): 89 % of control
T/C (dose: 400.0 mg/kg/injection, schedule: Q01DX005 (ip), vehicle: distilled water + Tween-80): 94 % of control

CC(=N\N)/C(C)=N/N
T/C [1]: 105 % of control

Nc1nc2c(c(=O)[nH]1)N(C(=O)NCCCl)C(CNc1ccc(C(=O)NC(CCC(=O)O)C(=O)O)cc1)CN2 (configuration not stated)
T/C (dose: 100.0 mg/kg/injection, schedule: Q01DX001 (ip), vehicle: sodium bicarbonate): 94 % of control
T/C (dose: 200.0 mg/kg/injection, schedule: Q01DX001 (ip), vehicle: sodium bicarbonate): 100 % of control
T/C (dose: 400.0 mg/kg/injection, schedule: Q01DX001 (ip), vehicle: sodium bicarbonate): 97 % of control

O=C1CCC(=O)N1CO
T/C [2]: 102 % of control
T/C (dose: 100.0 mg/kg/injection, schedule: Q04DX003 (ip), vehicle: saline): 106 % of control
T/C [3]: 109 % of control
T/C (dose: 200.0 mg/kg/injection, schedule: Q04DX003 (ip), vehicle: saline): 101 % of control
T/C (dose: 400.0 mg/kg/injection, schedule: Q01DX009 (ip), vehicle: saline): 111 % of control
T/C (dose: 400.0 mg/kg/injection, schedule: Q04DX003 (ip), vehicle: saline): 116 % of control

NC(CSC(c1ccccc1)(c1ccccc1)c1cccc2ccccc12)C(=O)O (configuration not stated)
T/C [4]: 100 % of control
T/C (dose: 50.0 mg/kg/injection, schedule: Q01DX009 (ip), vehicle: saline): 100 % of control
T/C [2]: 110 % of control
T/C [3]: 102 % of control

CCCCCCN(CCCCCC)CC(O)c1cccc2c1cc(Cl)c1ccccc12 (configuration not stated)
T/C [5]: 96 % of control
T/C [6]: 100 % of control
T/C [1]: 95 % of control
T/C [7]: 98 % of control
T/C (dose: 200.0 mg/kg/injection, schedule: Q04DX003 (ip), vehicle: saline with Tween-80): 101 % of control

COc1cc(OC)c(NC(=O)Oc2ccccc2F)cc1Cl
T/C [5]: 92 % of control
T/C [6]: 100 % of control
T/C [7]: 100 % of control

CC1(C)CC(NC2=NCCO2)CC(C)(C)N1
T/C (dose: 6.25 mg/kg/injection, schedule: Q01DX001 (ip), vehicle: saline): 94 % of control
T/C (dose: 6.25 mg/kg/injection, schedule: Q01DX009 (ip), vehicle: saline): 101 % of control
T/C (dose: 12.5 mg/kg/injection, schedule: Q01DX001 (ip), vehicle: saline): 97 % of control
T/C (dose: 12.5 mg/kg/injection, schedule: Q01DX009 (ip), vehicle: saline): 98 % of control
T/C (dose: 25.0 mg/kg/injection, schedule: Q01DX001 (ip), vehicle: saline): 90 % of control
T/C [4]: 96 % of control
